According to US20120121745A1, “AGENTS FOR THE CONTROL OF […]” (MARRONE BIO INNOVATIONS, INC., priority 2010, published 2012):

Test system: quagga mussels
Test: Molluscicidal effects of compounds isolated from Pseudomonas broth (live mussel jar-test bioassay, procedures of US 20100266717)
Format: in vivo
Details: Conc 16 μg/ml
Protocol: The culture broth derived from the 10-L fermentation P. fluorescens in FM2-growth media is first centrifuge to separate the cells pellet and supernatant. The supernatant and the cell pellet were extracted separately using Amberlite XAD-7 resin (Asolkar et al., 2006) by shaking the cell suspension/supernatant with resin at 225 rpm for two hours at room temperature. The resin and cell mass are collected by filtration through cheesecloth and washed with DI water to remove salts. The resin, cell mass, and cheesecloth are then soaked for 2 h in acetone/methanol (50/50) after which the acetone/methanol is filtered and dried under vacuum using rotary evaporator to give two separate crude extract.(one for supernatant and other for cell pellets). The crude extracts were then fractionated separately by using reversed-phase C18 vacuum liquid chromatography (H2O/CH3OH; gradient […] to 0:100%) to give 7 fractions. These fractions are then concentrated to dryness using rotary evaporator and the resulting dry residues are screened for biological activity using both a live mussel jar-test bioassay with quagga mussels as well as a cell-based assay with a freshwater snail embryo cell line (Biomphalaria glabrata). The active fractions are then subjected to reversed phase HPLC (Spectra System P4000 (Thermo Scientific) to give pure compounds, which are then screened in above mentioned bioassays to locate/identify the active compounds. To confirm the identity of the compound, additional spectroscopic data such as LC/MS and NMR is recorded.
The potency of compounds isolated from Pseudomonas broth is tested using procedures described in the US Patent Application Pub. No. 20100266717.

| SMILES | % mortality 24 hr [%] | % mortality 48 hr [%] | % mortality 72 hr [%] | % mortality 96 hr [%] |
| --- | --- | --- | --- | --- |
| CCCCCC[C@@H](O)C/C=C\CCCCCCCC(=O)O [Ricinoleic acid, ricinoleic acid] | 20 ± 0 | 20 ± 0 | 20 ± 0 | 20 ± 0 |
| CCCCCC/C=C/CCCCCCCC(=O)O [9-hexadecenoic acid] | 20 ± 14.1 | 25.5 ± 7.1 | 30 ± 14.1 | 30 ± 14.1 |
